What all share (assay): NCI-60 single-dose screen
Format in all cases: cell-based

The test system of one assay is ACHN. Conditions: Homo sapiens, 10^–5 M, read-out: GI (%). The method, boiled down: (§1)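 Single-dose screen at 10^−5 M across the NCI 60-human-tumor-cell-line panel.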
Another assay has as its system COLO205. The conditions noted are these: Homo sapiens, COLO 205; COLO205, 10^–5 M; read-out: GI (%). Put shortly:
as §1

A further assay concerns HOP-92. Conditions: Homo sapiens; HOP-92, 10^–5 M; read-out: GI (%). The method, boiled down: as §1
For the next assay, the system named is HT-29. The conditions noted are these: Homo sapiens; HT-29, 10^–5 M; read-out: GI (%). Put shortly: as §1
The test system of a further assay is KM12. Conditions: Homo sapiens; KM12, 10^–5 M; read-out: GI (%). Put shortly:
as §1

The subject of the next assay is MALME-3M. The conditions noted are these: Homo sapiens, 10^–5 M, read-out: GI (%). Put shortly:
as §1

The next assay relates to NCI-H460. The conditions noted are these: Homo sapiens; NCI-H460, 10^–5 M; read-out: GI (%). The method, boiled down:
as §1

The test system of the next assay is NCI/ADR-RES. The conditions noted are these: Homo sapiens, 10^–5 M, read-out: GI (%). The method, boiled down:
as §1

A further assay relates to OVCAR-3. Conditions: Homo sapiens; OVCAR-3, 10^–5 M; read-out: GI (%). Put shortly:
as §1

In the next assay the test system is OVCAR-8. The conditions noted are these: Homo sapiens; OVCAR-8, 10^–5 M; read-out: GI (%). The method, boiled down:
as §1

A further assay concerns PC-3. Conditions: Homo sapiens, PC-3, PC-3, 10^–5 M; read-out: GI (%). The method, boiled down: as §1
A further assay concerns SF-268. Conditions: Homo sapiens; SF-268, 10^–5 M; read-out: GI (%). Put shortly:
as §1

A further assay has as its system SK-MEL-5. Conditions: Homo sapiens; SK-MEL-5, 10^–5 M; read-out: GI (%). Put shortly: as §1
The test system of a further assay is SR. The conditions noted are these: Homo sapiens, 10^–5 M, read-out: GI (%). Put shortly:
as §1

In another assay the test system is TK-10. Conditions: Homo sapiens; TK-10, 10^–5 M; read-out: GI (%). The method, boiled down:
as §1

Structures are written as SMILES.

`O=C1C(Nc2ccc(I)cc2)=CC(c2ccc(Br)cc2)N1c1ccc(I)cc1` (stereo not drawn) [3d]: the inhibition at 10 µM in the assay with ACHN was found to be 15%; in the assay with COLO205, 0%; in the assay with HOP-92, 0%; in the assay with HT-29, 14%; in the assay on KM12, 17%; with MALME-3M it was 0%. The inhibition at 10 µM with NCI-H460 is 0%; with NCI/ADR-RES, 0%; in the assay on OVCAR-3 it was 5%; with OVCAR-8, 0%; in the assay with PC-3, 0%; in the assay with SF-268, 15%. The results for the inhibition at 10 µM in the assay with SK-MEL-5, in the assay on SR and in the assay on TK-10 were 20%, 0% and 0%, respectively.
In the case of `O=C1C(Nc2ccc(I)cc2)=CC(c2ccc(Cl)cc2)N1c1ccc(I)cc1` (stereo not drawn) [3c], the inhibition at 10 µM was found to be 21% with ACHN; 0% with COLO205; 27% in the assay on HOP-92; 19% with HT-29; 17% with KM12; 17% with MALME-3M. The inhibition at 10 µM is 7% in the assay with NCI-H460; 1% in the assay with NCI/ADR-RES; 9% with OVCAR-3; 11% in the assay with OVCAR-8; 1% in the assay with PC-3; 24% in the assay with SF-268. The values for the inhibition at 10 µM with SK-MEL-5, in the assay on SR and in the assay on TK-10 were 18%, 41% and 1%, respectively.
For `O=C1C(Nc2ccc(I)cc2)=CC(c2ccccc2)N1c1ccc(I)cc1` (stereo not drawn) [3a], the inhibition at 10 µM with ACHN came out at 13%; with COLO205 it was 0%; in the assay on HOP-92, 0%; with HT-29 it was 0%; with KM12 it was 8%; with MALME-3M, 0%. Further, the inhibition at 10 µM came out at 1% with NCI-H460; 0% in the assay on NCI/ADR-RES; 1% in the assay on OVCAR-3; 15% with OVCAR-8; 0% in the assay on PC-3; 16% with SF-268. The inhibition at 10 µM was found to be 1% in the assay on SK-MEL-5, 44% in the assay on SR and 12% in the assay on TK-10.
Consider `O=C1C(Nc2ccc(I)cc2)=CC(c2cc(C(F)(F)F)cc(C(F)(F)F)c2)N1c1ccc(I)cc1` (stereo not drawn) [3f], for which the inhibition at 10 µM with ACHN is 49%; with COLO205 it was 59%; in the assay with HOP-92 it was 19%; in the assay on HT-29 it was 5%; in the assay with KM12, 13%; with MALME-3M, 0%. The inhibition at 10 µM turned out to be 35% in the assay with NCI-H460; 7% in the assay on NCI/ADR-RES; 35% in the assay with OVCAR-3; 26% with OVCAR-8; 25% in the assay on PC-3; 21% in the assay with SF-268. Moreover, the inhibition at 10 µM in the assay with SK-MEL-5 came to 12%; in the assay with SR, 47%; in the assay with TK-10 it was 57%.
In the case of `O=C1C(Nc2ccc(I)cc2)=CC(c2ccc(F)cc2)N1c1ccc(I)cc1` (stereo not drawn) [3b], the inhibition at 10 µM with ACHN was 35%; in the assay on COLO205 it was 27%; in the assay on HOP-92, 36%; in the assay on HT-29, 16%; in the assay on KM12, 26%; in the assay with MALME-3M it was 6%. Further, the inhibition at 10 µM in the assay with NCI-H460 stood at 17%; in the assay on NCI/ADR-RES, 9%; with OVCAR-3, 9%; with OVCAR-8 it was 8%; in the assay with PC-3 it was 0%; in the assay on SF-268, 68%. For the same molecule, the inhibition at 10 µM in the assay on SK-MEL-5 stood at 5%; in the assay with SR it was 92%; with TK-10, 27%.

Values taken from paper PMC12736255, “Reinvestigating Pyrrol-2-One-Based Compounds: From Antimicrobial Agents to Promising Antitumor Candidates” (Pharmaceuticals, 2025).
